The target of data set [1] is brain-resident NR2B-subtype receptors (Mus musculus (Mouse), UniProt P35438+Q01097). Kind of data set: Ex vivo occupancy assay. It counts as in vivo. The following applies: iv, mouse. How it is done:
(§1) Ex Vivo Occupancy Assay. […] 7-9 weeks old male CD-1 mice were dosed intravenously in a vehicle consisting of 10% dimethylacetamide, 40% PEG-400, 30% hydroxypropyl betacyclodextrin, and 30% water with experimental compounds and the forebrains were harvested 15 minutes post-dosing by decapitation. The brain samples were immediately snap-frozen and stored at −80° C. On the following day, the dosed brain samples were thawed on ice for 15-20 minutes followed by homogenization using Polytron for 10 seconds in cold homogenization buffer composed of 50 mM KH2PO4 (pH adjusted to 7.4 with KOH), 1 mM EDTA, 0.005% Triton X 100 and protease inhibitor cocktail (Sigma Aldrich). The crude homogenates were further homogenized using a Dounce homogenizer and the homogenized membrane aliquots from all animals were flash-frozen and stored at −80° C. until further use. The whole homogenization process was performed on ice. For determining occupancy, the membrane homogenates were first thawed on ice and then needle-homogenized using a 25 gauge needle. The homogenized membrane (6.4 mg/ml) was added to a 96-well plate followed by addition of ^3H Ro 25-6981 (6 nM). The reaction mixture was incubated for 5 minutes on a shaker at 4° C. and then harvested onto GF/B filter plates (treated with 0.5% PEI for 1 hr at room temperature). The filter plates were dried at 50° C. for 20 mins, incubated with microscint 20 for 10 minutes and read on TopCount (Perkin Elmer). Each dose or compound group consisted of 4-5 animals. The control group of animals was dosed with vehicle alone. Membrane from each animal was added in triplicates to the assay plate. Non-specific binding was determined using 10 μM Ro 25-6981 added to the wells containing membrane homogenates from vehicle-dosed animals. Specific counts/minute was converted to % occupancy at each dose of a compound for each animal using the following equation: […]
Drug levels were determined by mass spectroscopy in the usual manner. Drug levels in the blood plasma were 572 nM in at this dose, and drug levels in the homogenized brain tissue were 863 nM.

Data set [2] is described as follows: Drug levels in blood plasma and homogenized brain tissue by mass spectroscopy. It counts as in vivo. The following applies: iv, mouse; for concentration at 15 min: male, 3 mg/Kg i.v., occupancy study. The procedure: as §1, with “animals.” for “animals. Specific counts/minute was converted to % occupancy at each dose of a compound for each animal using the following equation:”
Drug levels were determined by mass spectroscopy in the usual manner. […]
Mouse Forced Swim Test (mFST). […] The duration of immobility was evaluated during the total 6 min of the test and expressed as duration (sec) of immobility. […]

The values below come from patent publication US10501451B2, “Selective NR2B antagonists” (BRISTOL-MYERS SQUIBB COMPANY, priority 2015, dated 2019).

SMILES strings stand for the structures. Where two headings read alike, the source gives them in different places.

Sequence of brain-resident NR2B-subtype receptors (Q01097 27-1482, other chains not shown): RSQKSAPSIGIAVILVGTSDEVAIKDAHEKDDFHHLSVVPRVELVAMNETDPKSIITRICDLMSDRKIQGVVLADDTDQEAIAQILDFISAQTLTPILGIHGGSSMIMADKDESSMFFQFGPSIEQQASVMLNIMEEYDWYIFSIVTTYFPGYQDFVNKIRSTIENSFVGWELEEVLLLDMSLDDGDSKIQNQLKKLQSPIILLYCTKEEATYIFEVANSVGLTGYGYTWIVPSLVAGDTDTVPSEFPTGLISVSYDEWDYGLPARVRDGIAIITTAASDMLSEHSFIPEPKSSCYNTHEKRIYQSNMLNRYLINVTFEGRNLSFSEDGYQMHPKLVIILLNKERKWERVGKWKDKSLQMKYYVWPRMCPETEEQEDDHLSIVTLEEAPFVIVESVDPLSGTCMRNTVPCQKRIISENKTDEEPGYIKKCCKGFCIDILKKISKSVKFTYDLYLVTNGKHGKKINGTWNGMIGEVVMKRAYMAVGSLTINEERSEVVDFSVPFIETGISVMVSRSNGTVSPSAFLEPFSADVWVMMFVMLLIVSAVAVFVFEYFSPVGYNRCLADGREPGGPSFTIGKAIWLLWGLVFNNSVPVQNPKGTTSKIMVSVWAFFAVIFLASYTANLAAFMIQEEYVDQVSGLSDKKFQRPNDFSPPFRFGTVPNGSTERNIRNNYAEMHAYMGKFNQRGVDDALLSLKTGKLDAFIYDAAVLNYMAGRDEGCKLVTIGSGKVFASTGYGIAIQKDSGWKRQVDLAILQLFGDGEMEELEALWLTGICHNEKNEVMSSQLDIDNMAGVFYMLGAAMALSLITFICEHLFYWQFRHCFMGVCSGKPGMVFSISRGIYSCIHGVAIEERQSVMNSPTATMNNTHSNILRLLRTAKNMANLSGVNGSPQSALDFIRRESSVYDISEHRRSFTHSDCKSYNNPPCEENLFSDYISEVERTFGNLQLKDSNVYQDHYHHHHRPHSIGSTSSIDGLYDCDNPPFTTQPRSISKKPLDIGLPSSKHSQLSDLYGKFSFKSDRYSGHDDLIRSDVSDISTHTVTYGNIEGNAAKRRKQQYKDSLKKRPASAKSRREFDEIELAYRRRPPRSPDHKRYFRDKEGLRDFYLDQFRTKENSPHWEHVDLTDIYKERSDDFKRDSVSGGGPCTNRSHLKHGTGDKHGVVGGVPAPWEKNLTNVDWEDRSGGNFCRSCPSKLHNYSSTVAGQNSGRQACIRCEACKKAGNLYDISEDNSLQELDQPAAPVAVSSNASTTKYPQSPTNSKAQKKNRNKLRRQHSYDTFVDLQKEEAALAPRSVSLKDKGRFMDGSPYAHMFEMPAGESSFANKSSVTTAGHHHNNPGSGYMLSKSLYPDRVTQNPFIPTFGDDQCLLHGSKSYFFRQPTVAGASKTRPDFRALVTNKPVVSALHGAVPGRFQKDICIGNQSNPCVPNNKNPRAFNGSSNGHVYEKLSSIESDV

On to `Cc1ccc(CN2OCC(N3CCN(c4ccc(O)cn4)CC3)C2=O)cc1` (single isomer, unassigned) [Example 10, P-1, 4-(4-(5-hydroxypyridin-2-yl)piperazin-1-yl)-2-(4-methylbenzyl)isoxazolidin-3-one], for which the receptor occupancy at 1 mg/kg in data set [1] (1 mg/Kg i.v., forced swim test animals) amounted to 69%. In addition, the receptor occupancy at 3 mg/kg in data set [1] (3 mg/Kg i.v., forebrain harvested 15 minutes post-dosing) is 94%. The concentration at 15 min in data set [2] (CD-1, brain, read-out: drug levels in the homogenized brain tissue) worked out at 863 nM; in data set [2] (CD-1, plasma, read-out: Drug levels in the blood plasma), 572 nM. The concentration at 21 min in data set [2] (plasma, 1 mg/Kg i.v., at end of forced swim test) worked out at 207 nM.
